# Laboratory results: US20190365673A1, “Immunomodulatory Compounds” (Lankenau Institute for Medical Research, priority 2016, published 2019)
# Tests used:
# [1] = system: polyamine transport system (PTS); assay: Radiolabeled spermidine transport assay, human melanoma cell lines; type: cell-based; settings: FIG. 8A, WM983B (BRAF V600E), 1 mM DFMO 40 h
# Procedure: (§1) Polyamine transport in tumor cells was evaluated essentially as described (Kramer, et al. (1993) J. Cell Physiol., 155(2):399-407; Nilsson, et al. (2005) Cancer Cell 7(5):433-444). Radioactive spermidine (Net-522 Spermidine Trihydrochloride, [Terminal Methylenes-^3H(n)]) from Perkin Elmer was used (specific activity: 16.6 Ci/mmol). Cells were plated in 96 well plates and grown to approximately 80% confluence. Half of the cells were treated with 1 mM DFMO for 40 hours. After repeated washing with PBS, ^3H-spermidine was added at 1 μM and incubated for 60 minutes at 37° C. Cells were then washed with cold PBS containing 50 μM spermidine and lysed in 0.1% SDS at 37° C. for 30 minutes with mixing. Cell lysates were then aliquoted for scintillation counting and for protein assay using a mini-BioRad assay. Results were expressed as CPM/g protein.
# [2] = system: polyamine transport system (PTS); assay: Radiolabeled spermidine transport assay, murine melanoma cells; type: cell-based
# Procedure: (§2) FIG. 9A: Murine BRAF^V600E YUMM1.7 melanoma cells and BRAF^WT B16F10 melanoma cells were treated with increasing doses of AP. After 72 hours of culture, cell survival was determined via EZQuant™ Cell Quantifying assay. IC50 values were calculated by GraphPad Prism 6. FIG. 9B: Murine BRAF^V600E YUMM1.7 melanoma cells and BRAF^WT B16F10 melanoma cells were treated with increasing doses of AP±1 mM DFMO or with PLX4720. After 72 hours of culture, cell survival was determined via EZQuant™ Cell Quantifying assay. IC50 values were calculated by GraphPad Prism 6. […] Cells were washed with cold PBS containing 50 μM spermidine, and cell lysates were assayed for CPM ^3H-spermidine per mg protein by scintillation counting.
# as §1
# [3] = system: B16F10-sTAC melanoma tumors; assay: B16F10-sTAC melanoma tumor model; settings: for polyamine levels in tumors (HPLC): FIG. 1D, compared with vehicle-treated mice; for cytokine levels in tumors: FIG. 3, compared to vehicle treated mice; for B16F10-sTAC tumor growth compared to vehicle: Trimer PTI 3 mg/kg i.p. daily and/or 0.25% DFMO in drinking water
# Procedure: FIG. 1A: Mice were subcutaneously injected with 5×10^5 B16F10-sTAC melanoma cells. When tumors were 50-100 mm^3 in size, treatment was initiated with either saline, 0.25% DFMO (w/v) in the drinking water, Trimer PTI (i.p., 3 mg/kg, once a day) or both DFMO and Trimer PTI. […] FIG. 1B: Upon sacrifice, tumors were excised and weighed (mean±SEM). FIG. 1C: Spleen weight was determined upon sacrifice (mean±SEM). FIG. 1D: Polyamine levels were determined in tumors by HPLC and normalized to DNA levels in the tissue extracts (nmol/mg DNA). […] Trimer PTI levels were determined in tumor and skin supernatants by mass spectrometry and normalized to tissue protein concentration (nmol/mg protein). n=5-10 mice per group; *=p≤0.05 and #=p≤0.01 compared to vehicle-treated mice.
# Tumor models were established by subcutaneous injections of 5×10^5 B16F10-sTAC cells in C57B16 mice or 5×10^5 CT26.CL25 cells in Balb/c mice. Mice were monitored twice a week for tumor growth. Treatment with 0.25% (w/v) DFMO in the drinking water and the Trimer PTI (3 mg/kg daily by intraperitoneal injection) was initiated when tumors were palpable (50-100 mm^3). For adoptive transfers, spleens were excised and pressed through a nylon filter to obtain a single cell suspension. The resulting suspension was incubated with red cell lysis buffer for 5 minutes to lyse red blood cells. Gr1^+ cells were stained with a PE conjugated antibody and then isolated using anti-PE microbeads (Miltenyi Biotec) as per the manufacturer's instructions. Gr1^+ positive cells were injected into the retro-orbital cavity. Tumor growth was assessed morphometrically using calipers, and tumor volumes were calculated using the formula V (mm^3)=π/6×A×B^2 (A is the larger diameter and B is the smaller diameter).
# Upon sacrifice, splenocytes from B16F10-sTAC tumor bearing mice and tumor cell suspensions from CT26.CL25 tumor bearing mice were analyzed for IFN-γ producing cells by enzyme-linked immunosorbent spot (ELISpot) assay. Multiscreen filtration plates (Millipore) were coated with 0.5 μg/mL of purified anti-mouse IFN-γ capture antibody (Biolegend) overnight at 4° C. Single-cell suspensions of splenocytes or tumors were plated at 1×10^6 and 5×10^5 per well respectively. For ELISpot assays with splenocytes from B16F10-sTAC tumor bearing mice, cells were stimulated with the […] (SEQ ID NO: 1) peptide (Anaspec) at […]. […] After 16 hours of stimulation at 37° C., the cells were removed by washing and spots were developed with a biotinylated anti-IFN-γ detection antibody and streptavidin-horseradish peroxidase conjugate followed by NITRO-blue tetrazolium chloride and 5-bromo-4-chloro-3′-indoylphosphate p-toluidine salt substrate (Sigma). Spot numbers were counted, and data were reported as IFN-γ-spot forming cells per 10^6 cells.
# Mouse tumor tissues were fixed in 4% paraformaldehyde in PBS overnight and embedded in paraffin. Sections were deparaffinized, hydrated, and then heated in 0.01 mol/L sodium citrate buffer (pH 6.0) in a steamer for 8 minutes. Sections were incubated with the primary antibody (rat monoclonal anti-mouse F4/80 [BioRad MCA497GA]) for 2 hours at room temperature followed by biotinylated secondary and then an avidin HRP complex (Vectastain Elite ABC KIT, Vector Laboratories, INC). Immunoreactive cells were localized by incubating the sections with diaminobenzidine and peroxide and then counterstaining with hematoxylin. Pictures were obtained using a Zeiss Axiophot microscope (Carl Zeiss Inc.) with a digital color camera and corresponding software.
# B16F10-sTAC tumors were flash frozen in liquid nitrogen, ground and homogenized in PBS containing 0.5 μM dithiothreitol, 0.5 μM Pefabloc and 8 μg/mL leupeptin. Samples were analyzed for monocyte chemoattractant protein-1 (MCP-1), interleukin-6 (IL-6).
# [4] = system: BRAF^V600E YUMM1.7 melanoma cells; assay: Cell viability assay (EZQuant), YUMM1.7; type: cell-based, murine; settings: FIG. 9B, 72 h
# Procedure: as §2
# [5] = system: 1205Lu melanoma spheroids; assay: 3D spheroid culture viability (CellTiter-Glo); type: cell-based, human; settings: FIG. 10, 25 μM each drug, 48 h, 3D spheroids on NCPs
# Procedure: BRAF^V600E mutant 1205Lu melanoma cells were seeded at 1×10^4 cells in each well of the […] NCPs. When spheroids were formed on day 3, the 3D cultures of spheroids were treated with PLX4720 (25 μM) and/or AP (25 μM). 2D monolayer cultures of 1205Lu melanoma cells were also treated with PLX4720 (25 μM) and/or AP (25 μM). After drug treatment for 48 hours, the viability of spheroids and monolayer cultures was assayed using the CellTiter-Glo Luminescent Cell Viability Assay. The percent cell survival in each treatment group was calculated relative to cells treated with medium only under the same conditions. As controls, the growth of cells without drug treatment under each condition was normalized as 100% separately. The means are presented±SD.
# The inorganic nanoscale scaffolding NanoCulture plates (NCP) were purchased from SCIVAX. The base of each NCP is constructed with a transparent cyclo-olefin resinous sheet with a nanoscale indented pattern. To form spheroids, 1205Lu human melanoma cells were seeded in 96-well NCPs at 1×10^4 cells/well in MCDB153 (Sigma)/Leibovitz's L-15 (Cellgro) medium (4:1 ratio) supplemented with 2% heat-inactivated fetal calf serum and 2 mM CaCl2 and incubated in a conventional cell incubator at 37° C. in an atmosphere of 5% CO2 and normal O2 levels. […]
# [6] = system: 1205Lu melanoma cells transduced with JARID1B-promoter-EGFP-reporter; assay: JARID1B-promoter-EGFP reporter in spheroids; type: cell-based, human; settings: 2-day exposure, 1205Lu grown as spheroids
# Description: Treatment with a BRAF inhibitor such as PLX4720 enriches a slow-cycling cancer stem cell-like (CSC) subpopulation of melanoma cells that is characterized by stem cell markers including JARID1B and spheroid formation (Roesch, et al. (2010) Cell 141(4):583-594; Roesch, et al. (2013) Cancer Cell 23(6):811-825). It is thought that cancer stem cell populations exist in a hypoxic microenvironment (Schwab, et al. (2012) Breast Cancer Res., 14(1):R6; Mathieu, et al. (2011) Cancer Res., 71(13):4640-4652; Mohyeldin, et al. (2010) Cell Stem Cell, 7(2):150-161). Endogenous ROS levels are increased in slow cycling JARID1B^high melanoma cells as a result of increased mitochondrial respiration and oxidative phosphorylation (Roesch, et al. (2013) Cancer Cell 23(6):811-825). […] Using 1205Lu melanoma cells stably transduced with a JARID1B-promoter-EGFP-reporter construct (Roesch, et al.
# [7] = system: BRAF-mutant melanoma tumor; assay: BRAF-mutant melanoma tumor in mice treated with PLX4720; type: in vivo; settings: FIG. 11, PLX4720 alone
# Procedure: FIG. 11 provides a graph of tumor volume in mice over time after treatment with PLX4720 alone or PLX4720 with delayed administration of AP and DFMO.
# In addition to the above, the efficacy of AP in vivo was also tested.
# [8] = system: BRAF^V600E melanoma cells; settings: WM983B, WM3734, 1205Lu, WM989, WM88; read-out: IC50 (cell viability); cited from earlier work
# BRAF^WT melanoma cells = settings: WM3451, WM3743, WM3211; read-out: IC50 (cell viability); cited from earlier work
# [9] = compared to AMXT1501; cited from earlier work
sensitivity to PLX4720 (IC50 compared to B16F10 cells) [4],Structure (SMILES),polyamine transport activity after DFMO treatment [1],"polyamine uptake after DFMO treatment ([2]; B16F10 retrovirally expressing BRAF V600E, 1 mM DFMO)","polyamine uptake after DFMO treatment ([2]; FIG. 9C, B16F10 (BRAF WT), 1 mM DFMO 40 h)","PTS activity after DFMO treatment ([2]; FIG. 9C, YUMM1.7 (BRAF V600E), 1 mM DFMO 40 h)",polyamine levels in tumors (HPLC) [3],cytokine levels in tumors [3],B16F10-sTAC tumor growth compared to vehicle [3],cell viability of spheroid cultures [5],enrichment of JARID1B-driven GFP expressing cells [6],BRAF-mutant melanoma tumor volume over time [7],IC50 [8],IC50 (BRAF^WT melanoma cells),"spleen weight ([3]; FIG. 1C, Trimer PTI with or without DFMO)","accumulation in tumor compared to non-tumor bearing skin (mass spectrometry) ([3]; FIG. 1E, PBT-treated mice)",water solubility [9]
–,"NCCC[C@](N)(C(=O)O)C(F)F [DFMO, α-difluoromethylornithine, reference compound]",dramatically increased polyamine transport activity,enhance polyamine uptake,no significant induction,marked DFMO-induction of PTS activity,reduced the levels of putrescine,did not significantly alter,only modestly reduced,–,–,–,–,–,–,–,–
very sensitive,"CCCS(=O)(=O)Nc1ccc(F)c(C(=O)c2c[nH]c3ncc(Cl)cc23)c1F [PLX4720, reference compound]",–,–,–,–,–,–,–,more resistant,4 fold,initially quickly regress but then grow back,≤ 3000 nM,> 3000 nM,–,–,–
–,CNCCCCNCCCCNCc1cc(CNCCCCNCCCCNC)cc(CNCCCCNCCCCNC)c1 [Trimer PTI],–,–,–,–,no discernible effect,did not significantly alter,only modestly reduced,–,–,–,–,–,no significant effect,30 fold,more water-soluble
